Results from patent publication US10017542B2, “Antimicrobial peptides and methods of use thereof” (priority 2015, dated 2018).
Where a SMILES comes first, the peptide text is derived from it. [ ]: non-standard residue; d: D form. Orn = NCCC[C@H](N)C(=O)O

Assays:
[1] = system: Escherichia coli strain (E.c.); experiment: In vitro bactericidal activity screening, endpoint titration; conditions: last concentration giving greater than two-logs reduction in CFU vs. saline control
[2] = system: Fusobacterium nucleatum strain 1594 (F.n.); experiment: as above; conditions: last concentration giving greater than two-logs reduction in CFU vs. saline control
[3] = system: Actinobacillus actinomycetemcomitans strain A7154 (A.a.); experiment: as above; conditions: last concentration giving greater than two-logs reduction in CFU vs. saline control
[4] = system: Burkholderia cepacia strain Toronto (B.c.); experiment: as above; conditions: last concentration giving greater than two-logs reduction in CFU vs. saline control, 10^6 CFU/ml, 37° C.
[5] = system: all bacteria tested in Table 9; experiment: In vitro bactericidal activity screening, average across all bacteria; assay type: cell-based; conditions: average value across all bacteria
A. baumanii = conditions: 24 h
Description: (§1) Briefly, cells were grown overnight in media specified for each strain, and were diluted in the same media. Serial dilutions of the peptides were added to microtiter plates in a volume of 50 ul, followed by the addition of 50 ul of bacteria or fungi, 5×10^5 CFU/ml. Plates were incubated at 37 degrees for 24 hours and the Minimum Inhibitory Concentrations (MICs) were determined as the lowest peptide concentration that inhibited 50% of bacterial growth.

E. coli = conditions: 24 h
Description: (§2) Measurement of antimicrobial and anti-fungal activity was determined by a standard micrometer dilution method. Briefly, cells were grown overnight in media specified for each strain, and were diluted in the same media. Serial dilutions of the peptides were added to microtiter plates in a volume of 50 ul, followed by the addition of 50 ul of bacteria or fungi, 5×10^5 CFU/ml. Plates were incubated at 37 degrees for 24 hours and the Minimum Inhibitory Concentrations (MICs) were determined as the lowest peptide concentration that inhibited 50% of bacterial growth.

[6] = system: bacterial isolates of Table 7 (A. baumanii, E. coli, E. cloaca, Pseudomonas, Staphylococcus)
Description: as §1

Pseudomonas Xen5 = experiment: Antibacterial activity, microtiter dilution method; assay type: cell-based; conditions: 24 hours, 37 degrees
E. cloaca = conditions: 24 h
Description: as §2

[7] = system: Pseudomonas aeruginosa strain (P.a.); experiment: In vitro bactericidal activity screening, endpoint titration; conditions: last concentration giving greater than two-logs reduction in CFU vs. saline control
C. krusei = conditions: 24 h
Description: as §2

C. tropicalis = conditions: 24 h
Description: as §2

[8] = system: fungal isolates of Table 8 (C. albicans, C. krusei, C. tropicalis)
Description: as §2

B. thailandensis = experiment: microbe, parasite or virus in culture; conditions: Burkholderia thailandensis, 3 h

Molecule | Two-log Reduction Concentration [1] | Two-log Reduction Concentration [2] | Two-log Reduction Concentration [3] | Two-log Reduction Concentration [4] | Two-log Reduction Concentration Ave. [5] | IC50 (C. krusei) | IC50 (C. tropicalis) | IC50 [8] | also measured
FARKFLKKFKRFAKKFVRFAFAF [SEQ ID NO: 6] | 0.63 μM | 3.75 μM | 0.40 μM | 1.25 μM | 1.67 μM | – | – | – | –
CC[C@H](C)[C@H](NC(=O)[C@H](CCCNC(=N)N)NC(=O)[C@H](C)NC(=O)[C@H](CC(C)C)NC(=O)[C@@H](N)CCCNC(=N)N)C(=O)N[C@H](C(=O)NCC(=O)NCC(=O)N[C@@H](Cc1ccccc1)C(=O)N[C@@H](C)C(=O)N[C@@H](CCCN)C(=O)N[C@@H](CCCN)C(=O)N[C@@H](Cc1ccccc1)C(=O)N[C@@H](C)C(=O)N[C@@H](CCCN)C(=O)N[C@@H](CCCN)C(=O)N[C@@H](Cc1ccccc1)C(=O)N[C@@H](CCCN)C(=O)N[C@@H](CCCN)C(=O)N[C@@H](Cc1ccccc1)C(=O)N[C@@H](C)C(=O)N[C@@H](CCCN)C(=O)N[C@@H](CCCN)C(=O)N[C@@H](Cc1ccccc1)C(=O)N[C@@H](C)C(=O)N[C@@H](CCCN)C(=O)N[C@@H](Cc1ccccc1)C(=O)N[C@@H](C)C(=O)N[C@@H](Cc1ccccc1)C(=O)N[C@@H](C)C(=O)N[C@@H](Cc1ccccc1)C(=O)O)C(C)C [RP500, RLARIVGGFAOOFAOOFOOFAOOFAOFAFAF] (H-RLARIVGGFA[Orn][Orn]FA[Orn][Orn]F[Orn][Orn]FA[Orn][Orn]FA[Orn]FAFAF-OH; N-terminus and C-terminus assumed) | – | – | – | – | – | – | – | – | IC50 (A. baumanii): 7.6 µM; IC50 (E. coli): 3.8 µM; IC50 [6]: 5.3 µM; IC50 (Pseudomonas Xen5): 0.5 µM; IC50 (E. cloaca): 7.6 µM
FAFAFKAFKKAFKKFKKAFKKAFGPGRFAKKFAKKFKKFAKKFAKFAFAF [RP-433] | 0.63 μM | 1.25 μM | 0.10 μM | 0.12 μM | 0.46 μM | – | – | – | Two-log Reduction Concentration [7]: 0.90 μM
CSCC[C@H](NC(=O)[C@H](Cc1c[nH]c2ccccc12)NC(=O)[C@H](CC(C)C)NC(=O)[C@H](C)N)C(=O)N[C@H](C(=O)N[C@@H](CC(C)C)C(=O)N[C@@H](CCCN)C(=O)N[C@@H](CCCN)C(=O)N[C@@H](CCCN)C(=O)N[C@H](C(=O)N[C@@H](CC(C)C)C(=O)N[C@@H](CCCN)C(=O)N[C@@H](C)C(=O)N[C@@H](CCCN)C(=O)N[C@@H](C)C(=O)N[C@@H](CCCN)C(=O)N[C@@H](C)C(=O)N[C@@H](CC(C)C)C(=O)N[C@@H](CC(N)=O)C(=O)N[C@@H](C)C(=O)N[C@H](C(=O)N[C@@H](CC(C)C)C(=O)N[C@H](C(=O)NCC(=O)N[C@@H](C)C(=O)N[C@@H](CC(N)=O)C(=O)N[C@@H](C)C(=O)O)C(C)C)C(C)C)C(C)C)[C@@H](C)O [RP507, ALWMTLOOOVLOAOAOALNAVLVGANA] (H-ALWMTL[Orn][Orn][Orn]VL[Orn]A[Orn]A[Orn]ALNAVLVGANA-OH; N-terminus and C-terminus assumed) | – | – | – | – | – | 20 µM | 40 µM | 43.3 µM | –
CC[C@H](C)[C@H](NC(=O)[C@H](C)NC(=O)[C@H](CCCN)NC(=O)[C@H](CCCN)NC(=O)[C@H](CCCN)NC(=O)[C@@H](NC(=O)[C@H](CCCN)NC(=O)[C@H](CC(C)C)NC(=O)[C@H](CCCN)NC(=O)[C@H](CCCN)NC(=O)[C@H](CCCN)NC(=O)[C@H](CCCN)NC(=O)[C@H](C)NC(=O)[C@H](CCCN)NC(=O)[C@H](CO)NC(=O)[C@H](CC(C)C)NC(=O)[C@@H](NC(=O)[C@H](CCCCN)NC(=O)[C@H](CC(C)C)NC(=O)[C@H](CC(C)C)NC(=O)[C@H](CO)NC(=O)[C@H](CCCN)NC(=O)[C@H](CC(C)C)NC(=O)[C@@H](N)CCCN)[C@@H](C)O)[C@@H](C)O)C(=O)N[C@@H](CO)C(=O)N[C@@H](CCCN)C(=O)O [RP505, OLOSLLKTLSOAOOOOLOTOOOAISO] (H-[Orn]L[Orn]SLLKTLS[Orn]A[Orn][Orn][Orn][Orn]L[Orn]T[Orn][Orn][Orn]AIS[Orn]-OH; N-terminus and C-terminus assumed) | – | – | – | – | – | 17.5 µM | 8.8 µM | 13.2 µM | –
CC(C)(O/N=C(\C(=O)N[C@@H]1C(=O)N2C(C(=O)[O-])=C(C[n+]3ccccc3)CS[C@H]12)c1csc(N)n1)C(=O)O [Ceftazidime] | – | – | – | – | – | – | – | – | EC50 (B. thailandensis): 39.1 µM
